≈ marks a conversion by molar mass, not a printed value.
Key:
Mus musculus [1] = assay: Antitumor activity against M109 tumor murine lung carcinoma infected mice after ip administration using DMSO an water as vehicle at a dose of 30 mg/kg/inj; type: functional; conditions: route intraperitoneal
Mus musculus [2] = assay: Antitumor activity against M109 tumor murine lung carcinoma infected mice after ip administration using DMSO an saline as vehicle at a dose of 50 mg/kg/inj; type: functional; conditions: route intraperitoneal
Mus musculus [3] = assay: Antitumor activity against M109 tumor murine lung carcinoma infected mice after ip administration using DMSO an water as vehicle at a dose of 25 mg/kg/inj; type: functional; conditions: route intraperitoneal
Mus musculus [4] = assay: Antitumor activity against M109 tumor murine lung carcinoma infected mice after ip administration using DMSO an saline as vehicle at a dose of 30 mg/kg/inj; type: functional; conditions: route intraperitoneal
[5] = Solubility was determined; value ranges from 6-7; type: physicochemical
[6] = Solubility was determined; type: physicochemical
Mus musculus [7] = assay: Antitumor activity against M109 tumor murine lung carcinoma infected mice after ip administration using DMSO an water as vehicle at a dose of 50 mg/kg/inj; type: functional; conditions: route intraperitoneal
Mus musculus [8] = assay: Antitumor activity against M109 tumor murine lung carcinoma infected mice after ip administration using DMSO an water as vehicle at a dose of 10 mg/kg/inj; type: functional; conditions: route intraperitoneal
Mus musculus [9] = assay: Antitumor activity against M109 tumor murine lung carcinoma infected mice after ip administration using DMSO an saline as vehicle at a dose of 10 mg/kg/inj; type: functional; conditions: route intraperitoneal
Mus musculus [10] = assay: Antitumor activity against M109 tumor murine lung carcinoma infected mice after ip administration using DMSO an saline as vehicle at a dose of 25 mg/kg/inj; 1/6 mice cured; type: functional; conditions: route intraperitoneal
Mus musculus [11] = assay: Antitumor activity against M109 tumor murine lung carcinoma infected mice after ip administration using DMSO an water as vehicle at a dose of 25 mg/kg/inj; 1/6 mice cured; type: functional; conditions: route intraperitoneal

## CC(=O)O[C@H]1C(=O)[C@]2(C)[C@@H](OP(=O)([O-])[O-])C[C@H]3OC[C@@]3(OC(C)=O)[C@H]2[C@H](OC(=O)c2ccccc2)[C@]2(O)C[C@H](OC(=O)[C@H](O)[C@@H](NC(=O)c3ccccc3)c3ccccc3)C(C)=C1C2(C)C.[Na+].[Na+]
Mus musculus [1]
  Max T/C: 123

## CC(=O)O[C@H]1C(=O)[C@@]2(C)[C@H]([C@H](OC(=O)c3ccccc3)[C@]3(O)C[C@H](OC(=O)[C@H](OP(=O)(OCc4ccccc4)OCc4ccccc4)[C@@H](NC(=O)c4ccccc4)c4ccccc4)C(C)=C1C3(C)C)[C@]1(OC(C)=O)CO[C@@H]1C[C@@H]2O
Mus musculus [2]
  Max T/C: 107

## CC(=O)O[C@H]1C(=O)[C@@]2(C)[C@H]([C@H](OC(=O)c3ccccc3)[C@]3(O)C[C@H](OC(=O)[C@H](OP(=O)([O-])[O-])[C@@H](NC(=O)c4ccccc4)c4ccccc4)C(C)=C1C3(C)C)[C@]1(OC(C)=O)CO[C@@H]1C[C@@H]2O.[Na+].[Na+]
Mus musculus [3]
  Max T/C: 140

## CC(=O)O[C@H]1C(=O)[C@]2(C)[C@@H](OP(=O)([O-])[O-])C[C@H]3OC[C@@]3(OC(C)=O)[C@H]2[C@H](OC(=O)c2ccccc2)[C@]2(O)C[C@H](OC(=O)[C@H](OP(=O)([O-])[O-])[C@@H](NC(=O)c3ccccc3)c3ccccc3)C(C)=C1C2(C)C.[Na+].[Na+].[Na+].[Na+]
Mus musculus [4]
  Max T/C: 103

## CC(=O)O[C@@]12CO[C@@H]1C[C@H](O)[C@@]1(C)C(=O)[C@H](O)C3=C(C)[C@@H](OC(=O)[C@H](O)[C@@H](NC(=O)OC(C)(C)C)c4ccccc4)C[C@@](O)([C@@H](OC(=O)c4ccccc4)[C@H]21)C3(C)C.O.O.O [DOCETAXEL]
[5]
  solubility: 6 µg/mL

## CC(=O)O[C@H]1C(=O)[C@@]2(C)[C@H]([C@H](OC(=O)c3ccccc3)[C@]3(O)C[C@H](OC(=O)[C@H](O)[C@@H](NC(=O)c4ccccc4)c4ccccc4)C(C)=C1C3(C)C)[C@]1(OC(C)=O)CO[C@@H]1C[C@@H]2O [PACLITAXEL]
[6]
  solubility: 0.25 µg/mL (≈ 0.293 µM)
Mus musculus [7]
  Max T/C: 270
Mus musculus [8]
  Max T/C: 190
Mus musculus [9]
  Max T/C: 190
Mus musculus [2]
  Max T/C: 270
Mus musculus [10]
  Max T/C: 240
Mus musculus [11]
  Max T/C: 240

Reference: ChEMBL document CHEMBL1126512, “Synthesis and antitumor evaluation of water soluble taxol phosphates” (Bioorg Med Chem Lett, 1993)
